This is an account of results in ChEMBL document CHEMBL1240439, “Synthesis and docking studies of novel benzopyran-2-ones with anticancer activity” (2010).

Type in all cases: functional
For one test, the system named is K562. The experiment in a line: Cytotoxicity against human K562 cells assessed as cell growth at 10 uM after 48 hrs by sulforhodamine B assay. The conditions noted are these: K562, 48 h, read-out: Activity.
Another test deals with HOP-92. The experiment in a line: Cytotoxicity against human HOP92 cells assessed as cell growth at 10 uM after 48 hrs by sulforhodamine B assay. The settings on record: HOP-92, 48 h, read-out: Activity. Background: The SRB assay estimates cell density from bound dye.
Another test concerns HCC 2998. Put plainly: Cytotoxicity against human HCC2998 cells assessed as cell growth at 10 uM after 48 hrs by sulforhodamine B assay. The conditions noted are these: HCC 2998, 48 h, read-out: Activity.
Another test relates to HCT-116. Put plainly: Cytotoxicity against human HCT116 cells assessed as cell growth at 10 uM after 48 hrs by sulforhodamine B assay. The settings on record: HCT-116, 48 h, read-out: Activity.
For another test, the system named is OVCAR-3. Put plainly: Cytotoxicity against human OVCAR-3 cells assessed as cell growth at 10 uM after 48 hrs by sulforhodamine B assay. The settings on record: OVCAR-3, 48 h, read-out: Activity.
Another test relates to SK-OV-3. Put plainly: Cytotoxicity against human SKOV3 cells assessed as cell growth at 10 uM after 48 hrs by sulforhodamine B assay. The settings on record: SK-OV-3, 48 h, read-out: Activity.
The subject of another test is 786-0. Put plainly: Cytotoxicity against human 786-0 cells assessed as cell growth at 10 uM after 48 hrs by sulforhodamine B assay. The settings on record: 786-0, 48 h, read-out: Activity.
A further test deals with UO-31. Put plainly: Cytotoxicity against human UO31 cells assessed as cell growth at 10 uM after 48 hrs by sulforhodamine B assay. The settings on record: UO-31, 48 h, read-out: Activity.

For the compound `Cc1cc(=O)n(C(=O)COc2ccc3c(-c4ccccc4)cc(=O)oc3c2C)[nH]1`, the growth at 10 µM is -24.1% in the test with K562; -64.4% in the test on HOP-92; 17.4% in the test on HCC 2998; -65.9% in the test on HCT-116; -61.1% with OVCAR-3; 15.9% with SK-OV-3. The results for the growth at 10 µM in the test on 786-0 and in the test with UO-31 were -58.8% and 18.6%, respectively.
